PMC6193737, “Ligand binding properties of two Brugia malayi fatty acid and retinol (FAR) binding proteins and their vaccine efficacies against challenge infection in gerbils” (PLoS Neglected Tropical Diseases, 2018)

Experiments:
Format in all cases: binding
[1] = molecular target: T1, rBm-FAR-1 (Brugia malayi, UniProt A0A0K0J905); assay: fluorescence emission enhancement and blue shift; settings: PBS pH 7.2; DAUDA ~1 uM; excitation 345 nm; fluorophore-tagged fatty acid
T1 construct: gene bma-far-1; signal peptide removed; C-terminal 6His tag; secreted from Pichia (PichiaPink strain 4, pPinkalpha-HC, codon optimised); IMAC; ~19 kDa
T1 sequence (A0A0K0J905 entry or part of it): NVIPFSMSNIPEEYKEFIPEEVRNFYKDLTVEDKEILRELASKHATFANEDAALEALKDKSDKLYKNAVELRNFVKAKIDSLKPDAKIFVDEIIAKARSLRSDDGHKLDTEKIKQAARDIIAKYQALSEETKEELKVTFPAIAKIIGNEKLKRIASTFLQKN

[2] = molecular target: T2, rOv-FAR-1 (Onchocerca volvulus, UniProt Q25619); assay: fluorescence emission enhancement and blue shift; settings: PBS pH 7.2; DAUDA ~1 uM; excitation 345 nm; fluorophore-tagged fatty acid
T2 construct: recombinant from E. coli, produced by procedures similar to rBm-FAR-2 (His tag, IMAC, signal peptide removed)
T2 sequence (Q25619 17-178): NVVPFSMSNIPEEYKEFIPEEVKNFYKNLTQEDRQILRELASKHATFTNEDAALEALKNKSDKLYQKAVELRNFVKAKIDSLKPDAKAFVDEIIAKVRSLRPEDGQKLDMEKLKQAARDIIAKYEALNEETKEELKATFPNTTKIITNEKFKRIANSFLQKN

[3] = molecular target: T2, rOv-FAR-1; assay: fluorescence emission enhancement; settings: PBS pH 7.2
[4] = molecular target: T1, rBm-FAR-1; assay: fluorescence emission enhancement; settings: PBS pH 7.2
[5] = molecular target: T3, rOv-FAR-2 (Onchocerca volvulus, UniProt C7DRP3); assay: fluorescence emission enhancement; settings: PBS pH 7.2
T3 construct: recombinant from E. coli, produced by procedures similar to rBm-FAR-2 (His tag, IMAC, signal peptide removed)
T3 sequence (C7DRP3 entry or part of it): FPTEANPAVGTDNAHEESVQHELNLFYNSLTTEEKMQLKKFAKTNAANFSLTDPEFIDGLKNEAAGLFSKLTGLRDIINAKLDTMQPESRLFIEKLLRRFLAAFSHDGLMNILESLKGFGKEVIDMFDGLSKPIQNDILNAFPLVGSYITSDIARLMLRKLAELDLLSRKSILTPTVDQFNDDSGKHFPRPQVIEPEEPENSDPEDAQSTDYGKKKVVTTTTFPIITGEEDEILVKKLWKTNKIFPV

[6] = retinol ~4 uM, excitation 350 nm

SMILES: CN(C)c1cccc2c(S(=O)(=O)NCCCCCCCCCCC(=O)O)cccc12 [DAUDA, 11-((5-dimethylaminonaphthalene-1-sulfonyl)amino)undecanoic]
- fluorescence emission enhancement and blue shift [1]: rBm-FAR-1 produced a large increase in DAUDA emission and a substantial blue-shift
- fluorescence emission enhancement and blue shift [2]: FAR-1s bind DAUDA, yielding similarly substantial increases and blue shift

SMILES: CC1=C(/C=C/C(C)=C/C=C/C(C)=C/CO)C(C)(C)CCC1 [all-trans retinol]
- fluorescence emission enhancement [3, 6]: the proteins from both parasites bind retinol
- fluorescence emission enhancement [4, 6]: Addition of retinol to either rBm-FAR-1 or rBm-FAR-2 resulted in substantial increases in fluorescence emission
- fluorescence emission enhancement [5, 6]: the proteins from both parasites bind retinol

SMILES: CC\C=C/C=C/C=C/C=C\CCCCCCCC(=O)O [cis-parinaric acid]
- fluorescence emission enhancement ([3]; cPnA ~4 uM, excitation 319 nm): both FAR-1s and FAR-2s bind a natural, intrinsically fluorescent, fatty acid acid (cPnA)
- fluorescence emission enhancement ([4]; cPnA ~4 uM, excitation 319 nm): Both rBm-FAR-1 and rBm-FAR-2 bound cPnA
- fluorescence emission enhancement ([5]; cPnA ~4 uM, excitation 319 nm): both FAR-1s and FAR-2s bind a natural, intrinsically fluorescent, fatty acid acid (cPnA)
